Consider 49 molecules from patent US12428415B2, “Matriptase 2 inhibitors and uses thereof” (Disc Medicine, Inc., priority 2018, dated 2025).

Molecules are shown by their SMILES.

In general, inhibition refers to how much of the control response was suppressed.

For the test, the target named is T1, Human Recombinant Matriptase 2 (Homo sapiens, UniProt Q8IU80).
T1 construct: purchased Enzo Life Sciences (an in-house preparation was also used) ALX-201-752-1
T1 sequence (Q8IU80 1-811): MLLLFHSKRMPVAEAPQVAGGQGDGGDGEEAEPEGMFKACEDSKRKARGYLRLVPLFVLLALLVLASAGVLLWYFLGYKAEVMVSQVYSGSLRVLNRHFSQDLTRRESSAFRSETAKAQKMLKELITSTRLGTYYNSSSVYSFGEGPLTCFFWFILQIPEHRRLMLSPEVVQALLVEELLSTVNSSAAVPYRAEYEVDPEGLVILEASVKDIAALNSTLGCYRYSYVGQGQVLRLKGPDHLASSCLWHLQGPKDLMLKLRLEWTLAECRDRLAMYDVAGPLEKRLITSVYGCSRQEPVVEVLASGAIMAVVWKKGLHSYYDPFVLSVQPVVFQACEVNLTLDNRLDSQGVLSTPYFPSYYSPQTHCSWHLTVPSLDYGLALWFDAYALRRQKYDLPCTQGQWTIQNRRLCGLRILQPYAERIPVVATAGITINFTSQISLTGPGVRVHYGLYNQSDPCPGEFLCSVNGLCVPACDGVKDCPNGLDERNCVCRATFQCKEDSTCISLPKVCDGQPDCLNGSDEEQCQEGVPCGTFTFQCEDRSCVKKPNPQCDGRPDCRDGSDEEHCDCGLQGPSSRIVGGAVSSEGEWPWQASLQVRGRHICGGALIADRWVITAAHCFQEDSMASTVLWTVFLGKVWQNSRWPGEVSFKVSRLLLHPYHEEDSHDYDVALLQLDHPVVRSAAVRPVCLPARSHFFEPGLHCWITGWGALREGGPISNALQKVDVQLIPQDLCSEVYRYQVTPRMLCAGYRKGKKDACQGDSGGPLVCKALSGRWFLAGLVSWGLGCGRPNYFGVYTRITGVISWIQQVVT
The test is described as follows: Matriptase 2 fluorescence based inhibition assay, Method B (50 mM TRIS pH 7.5, 150 mM NaCl, 0.01% gelatin). It is filed as biochemical. The conditions noted are these: 1 uM compound, Assay Used = B; for inhibition at 1 µM: read-out: Mar-2 % inhibition at 1 uM. On the procedure: Test compounds were evaluated for their potential to inhibit Human Recombinant Matriptase 2 (in-house and commercial protein from Enzo Life Sciences—cat log -ALX-201-752-1) using fluorescence based assay. The concentration of Recombinant Matriptase 2 and the substrate used in the assay was: 7 nM (commercial) and 15 nM (Inhouse Matriptase 2) and 100 μM (Boc-Gln-Ala-Arg-7-amido-4-methyl coumarin hydrobromide—Cat log: B4153-Sigma and I-1550 from Bachem) respectively. The assay buffer used was 50 mM TRIS pH 7.5, 150 mM NaCl, 0.01% gelatin (G1393 Sigma). The assay was performed using 384 well black flat bottom plate from grenier (Cat log: 781076) at 25° C. The enzyme and compound preincubated for 30 mins, plate was read 60 mins after substrate addition at wavelength Ex: 360/Em:480 nm. The final assay volume of was 20 μl. Stock solution of compounds were initially prepared in DMSO and appropriate dilutions were made for screening and IC50 determination (final DMSO conc in the assay was 1%). All the measurements were carried out using the Spectramax M5, Molecular devices. The compounds were screened at 1 and 10 μM concentration and IC50 was determined for the interested compounds.
To determine IC50 values, dose response curves were generated by plotting percentage inhibition as a function of inhibitor concentration and the data was fitted to sigmoidal non-linear regression equation (variable slope) using Graph Pad prism software V7.

On to `N=C(N)c1ccc2cc(C(=O)N[C@@H]3CCNC3)n(Cc3cccc4ccccc34)c2c1` [Compound I-433], for which the inhibition at 1 µM fell in the range of 75 to 100%.

`CCOC(=O)N1CCC(NC(=O)c2cc3ccc(C(=N)N)cc3n2Cc2cccc3ccccc23)CC1` [Compound I-434]: the inhibition at 1 µM lay within 75 to 100%.

As for `N=C(N)c1ccc2cc(C(=O)NCc3ccc(CO)cc3)n(Cc3cccc4ccccc34)c2c1` [Compound I-435], the inhibition at 1 µM was in the range of 50 to 75%.

Consider `CC1(O)CCC(NC(=O)c2cc3ccc(C(=N)N)cc3n2Cc2cccc3ccccc23)CC1` (stereo not shown) [Compound I-436], for which the inhibition at 1 µM is 50 to 75%.

Turning to `N=C(N)c1ccc2cc(C(N)=O)n(Cc3cccc4ccccc34)c2c1` [Compound I-437], the inhibition at 1 µM fell in the range of 75 to 100%.

Turning to `N=C(N)c1ccc2cc(C(=O)NC3CCCCC3)n(Cc3cccc4ccccc34)c2c1` [Compound I-438], the inhibition at 1 µM fell in the range of 25 to 50%.

Take `N=C(N)c1ccc2cc(C(=O)N[C@H]3CC[C@@H](N)CC3)n(Cc3cccc4ccccc34)c2c1` [Compound I-439]: the inhibition at 1 µM was 75 to 100%.

Turning to `N=C(N)c1ccc2cc(C(=O)N[C@H]3CC[C@H](O)CC3)n(Cc3cccc4ccccc34)c2c1` [Compound I-440], the inhibition at 1 µM fell in the range of 75 to 100%.

As to `N=C(N)c1ccc2cc(C(=O)N3CC[C@@H](O)C3)n(Cc3cccc4ccccc34)c2c1` [Compound I-441], the inhibition at 1 µM was 25 to 50%.

Turning to `N=C(N)c1ccc2cc(C(=O)N3CCCNCC3)n(Cc3cccc4ccccc34)c2c1` [Compound I-442], the inhibition at 1 µM is 50 to 75%.

Take `CN1CCN(C(=O)c2cc3ccc(C(=N)N)cc3n2Cc2cccc3ccccc23)CC1` [Compound I-443]: the inhibition at 1 µM fell in the range of 0 to 25%.

With `N=C(N)c1ccc2cc(C(=O)N3CCC(CO)CC3)n(Cc3cccc4ccccc34)c2c1` [Compound I-444], the inhibition at 1 µM was 25 to 50%.

Take `N=C(N)c1ccc2cc(C(=O)NC3CCCNC3)n(Cc3cccc4ccccc34)c2c1` (stereo not shown) [Compound I-445]: the inhibition at 1 µM is 75 to 100%.

Take `N=C(N)c1ccc2cc(C(=O)N3CC[C@@H](N)C3)n(Cc3cccc4ccccc34)c2c1` [Compound I-446]: the inhibition at 1 µM lay in the range of 50 to 75%.

Regarding `N=C(N)c1ccc2cc(C(=O)Nc3ccc(N4CCC(F)C4)cc3)n(Cc3cccc4ccccc34)c2c1` (stereo not shown) [Compound I-447], the inhibition at 1 µM was 25 to 50%.

Take `N=C(N)c1ccc2cc(C(=O)Nc3cccc(-c4ncc[nH]4)c3)n(Cc3cccc4ccccc34)c2c1` [Compound I-448]: the inhibition at 1 µM was 25 to 50%.

Take `CN1CC[C@@H](NC(=O)c2cc3ccc(C(=N)N)cc3n2Cc2cccc3ccccc23)C1` [Compound I-450]: the inhibition at 1 µM is 75 to 100%.

As to `CN(C(=O)c1cc2ccc(C(=N)N)cc2n1Cc1cccc2ccccc12)[C@H]1CC[C@H](N)CC1` [Compound I-451], the inhibition at 1 µM fell in the range of 50 to 75%.

As to `N=C(N)c1ccc2cc(C(=O)NCCCCN)n(Cc3cccc4ccccc34)c2c1` [Compound I-452], the inhibition at 1 µM fell in the range of 75 to 100%.

As to `N=C(N)c1ccc2cc(C(=O)N(CCO)C3CCC(N)CC3)n(Cc3cccc4ccccc34)c2c1` (stereo not shown) [Compound I-453], the inhibition at 1 µM lay within 50 to 75%.

For the molecule `N=C(N)c1ccc2cc(C(=O)N3CC4CC3CN4)n(Cc3cccc4ccccc34)c2c1` (stereo not shown) [Compound I-454], the inhibition at 1 µM lay within 75 to 100%.

As to `NC(=O)c1ccc2cc(C(=O)NC3CCNCC3)n(Cc3cccc4ccccc34)c2c1` [Compound I-455, 1-(naphthalen-1-ylmethyl)-N2-(piperidin-4-yl)-1H-indole-2,6-dicarboxamide], the inhibition at 1 µM fell in the range of 0 to 25%.

Take `NC(=O)c1ccc2cc(C(=O)N[C@@H]3CCNC3)n(Cc3cccc4ccccc34)c2c1` [Compound I-456]: the inhibition at 1 µM is 0 to 25%.

`CN1CCC(NC(=O)c2cc3ccc(C(N)=O)cc3n2Cc2cccc3ccccc23)CC1` [Compound I-457]: the inhibition at 1 µM lay in the range of 0 to 25%.

With `N=C(N)c1ccc2cc(C(=O)O)n(Cc3cccc4ccccc34)c2c1` [Compound I-458, 6-carbamimidoyl-1-(naphthalen-1-ylmethyl)-1H-indole-2-carboxylic Acid], the inhibition at 1 µM was in the range of 75 to 100%.

Take `N=C(N)c1ccc2cc(C(=O)O)n(Cc3ccc4ccccc4c3)c2c1` [Compound I-459]: the inhibition at 1 µM lay within 25 to 50%.

Regarding `CN1CCC(CNC(=O)c2cc3ccc(C(=N)N)cc3n2Cc2cccc3ccccc23)CC1` [Compound I-460, 6-carbamimidoyl-N-((1-methylpiperidin-4-yl)methyl)-1-(naphthalen-1-ylmethyl)-1H-indole-2-carboxamide], the inhibition at 1 µM is 75 to 100%.

`N=C(N)c1ccc2cc(C(=O)Nc3cccc(N4CCCC4)n3)n(Cc3cccc4ccccc34)c2c1` [Compound I-461]: the inhibition at 1 µM was 25 to 50%.

Take `N=C(N)c1ccc2cc(C(=O)NC3CCC(N4CCCC4)CC3)n(Cc3cccc4ccccc34)c2c1` (stereo not shown) [Compound I-462]: the inhibition at 1 µM was in the range of 75 to 100%.

In the case of `N=C(N)c1ccc2cc(C(=O)NC3CCOCC3)n(Cc3cccc4ccccc34)c2c1` [Compound I-463], the inhibition at 1 µM fell in the range of 50 to 75%.

As for `N=C(N)c1ccc2cc(C(=O)NCC3(C(N)=O)CCCCC3)n(Cc3cccc4ccccc34)c2c1` [Compound I-464], the inhibition at 1 µM lay in the range of 50 to 75%.

`N=C(N)c1ccc2cc(C(=O)NCCN)n(Cc3cccc4ccccc34)c2c1` [Compound I-465]: the inhibition at 1 µM lay within 75 to 100%.

For `N=C(N)c1ccc2cc(C(=O)NCCCN)n(Cc3cccc4ccccc34)c2c1` [Compound I-466], the inhibition at 1 µM lay in the range of 75 to 100%.

On to `N=C(N)c1ccc2cc(C(=O)NC3CCCC(N)C3)n(Cc3cccc4ccccc34)c2c1` (stereo not shown) [Compound I-467], for which the inhibition at 1 µM was 75 to 100%.

Consider `N=C(N)c1ccc2cc(C(=O)N3CCOCC3)n(Cc3cccc4ccccc34)c2c1` [Compound I-468], for which the inhibition at 1 µM was 25 to 50%.

As for `CN(C)[C@H]1CC[C@H](NC(=O)c2cc3ccc(C(=N)N)cc3n2Cc2cccc3ccccc23)CC1` [Compound I-469], the inhibition at 1 µM fell in the range of 75 to 100%.

For `CN(C)[C@H]1CC[C@@H](NC(=O)c2cc3ccc(C(=N)N)cc3n2Cc2cccc3ccccc23)CC1` [Compound I-470], the inhibition at 1 µM lay within 75 to 100%.

For `COC(=O)[C@H]1CC[C@H](NC(=O)c2cc3ccc(C(=N)N)cc3n2Cc2cccc3ccccc23)CC1` [Compound I-471], the inhibition at 1 µM lay within 25 to 50%.

For the molecule `CN[C@H]1CC[C@H](NC(=O)c2cc3ccc(C(=N)N)cc3n2Cc2cccc3ccccc23)CC1` [Compound I-472], the inhibition at 1 µM lay within 75 to 100%.

In the case of `N=C(N)c1ccc2cc(C(=O)N[C@H]3CC[C@H](C(=O)O)CC3)n(Cc3cccc4ccccc34)c2c1` [Compound I-473], the inhibition at 1 µM fell in the range of 25 to 50%.

As for `N=C(N)c1ccc2cc(C(=O)NCC3(CN)CCCCC3)n(Cc3cccc4ccccc34)c2c1` [Compound I-474], the “Mar-2 % inhibition at 1 uM” value is reported as “D (D represents 75%≤I≤100%)”.

For `N=C(N)c1ccc2cc(C(=O)NC3CCNC(=O)C3)n(Cc3cccc4ccccc34)c2c1` (stereo not shown) [Compound I-477], the inhibition at 1 µM lay within 50 to 75%.

For `N=C(N)c1ccc2cc(C(=O)NCCCN3CCCCC3)n(Cc3cccc4ccccc34)c2c1` [Compound I-478], the inhibition at 1 µM lay in the range of 75 to 100%.

Regarding `CC1CCCCN1CCCNC(=O)c1cc2ccc(C(=N)N)cc2n1Cc1cccc2ccccc12` (stereo not shown) [Compound I-479], the “Mar-2 % inhibition at 1 uM” value is “C (C represents 50%≤I≤75%)”.

With `N=C(N)c1ccc2cc(C(=O)NC3CC4CC3CN4)n(Cc3cccc4ccccc34)c2c1` (stereo not shown) [Compound I-480], the inhibition at 1 µM is 75 to 100%.

For the molecule `N=C(N)c1ccc2cc(C(=O)NCCN3CCCCC3)n(Cc3cccc4ccccc34)c2c1` [Compound I-481], the inhibition at 1 µM lay in the range of 75 to 100%.

Take `CN(C)C(=O)c1cc2ccc(C(=N)N)cc2n1Cc1cccc2ccccc12` [Compound I-482]: the “Mar-2 % inhibition at 1 uM” value was “B (B represents 25%≤I≤50%)”.

As to `CNC(=O)c1cc2ccc(C(=N)N)cc2n1Cc1cccc2ccccc12` [Compound I-483], the “Mar-2 % inhibition at 1 uM” value is recorded as “C (C represents 50%≤I≤75%)”.

On to `N=C(N)c1ccc2cc(C(=O)NS(=O)(=O)C3CC3)n(Cc3cccc4ccccc34)c2c1` [Compound I-484], for which the inhibition at 1 µM was 25 to 50%.
